Columns and labels:
[1] = tested on: worms; design: method as in PMID 7016122; details: previous studies; cited from earlier work
[2] = molecular target: T1, Thioredoxin glutathione reductase from S. mansoni (SmTGR) (Schistosoma mansoni, UniProt Q962Y6); assay: Endpoint SmTGR fluorescence (ThioGlo) assay; format: biochemical
T1 construct: made in house
T1 sequence (Q962Y6 1-598): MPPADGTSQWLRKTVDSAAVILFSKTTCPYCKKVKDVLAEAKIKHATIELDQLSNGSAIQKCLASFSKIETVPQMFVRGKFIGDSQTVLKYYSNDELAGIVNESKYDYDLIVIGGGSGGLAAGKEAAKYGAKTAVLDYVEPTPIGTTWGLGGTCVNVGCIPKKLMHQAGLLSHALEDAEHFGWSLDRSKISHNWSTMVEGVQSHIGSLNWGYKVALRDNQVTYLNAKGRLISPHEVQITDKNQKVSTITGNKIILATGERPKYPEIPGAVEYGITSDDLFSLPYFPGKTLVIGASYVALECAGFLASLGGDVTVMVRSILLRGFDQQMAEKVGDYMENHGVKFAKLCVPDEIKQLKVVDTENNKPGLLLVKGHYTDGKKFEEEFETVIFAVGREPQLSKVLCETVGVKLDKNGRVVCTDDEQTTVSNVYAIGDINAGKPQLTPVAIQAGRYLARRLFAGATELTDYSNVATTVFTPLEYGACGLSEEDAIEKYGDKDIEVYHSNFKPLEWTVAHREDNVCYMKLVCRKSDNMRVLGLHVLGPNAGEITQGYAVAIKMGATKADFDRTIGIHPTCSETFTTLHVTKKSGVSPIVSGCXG
Description: SmTGR protein (1.58 μg/ml) was loaded into each well of black 384-well plates (PerkinElmer, Boston, MA, USA) containing 19 μl of assay buffer I (90 mM Tris-HCl, 10 mM EDTA, pH 7.5, 100 μM NADPH, and 0.48 mg/ml BSA), followed by an addition of 1 μl positive control or test compounds. The plates were sealed and incubated for 50 min at room temperature. […] Following a 1 h incubation, the product was reacted with 30 μl ThioGlo® 1 reagent for 20–30 min, and the fluorescence signal was monitored at an excitation wavelength of 380 nm and an emission wavelength of 515 nm on the EnVision plate reader (PerkinElmer).
An HTS effort was carried out against the compound library described above. […]
Data were analyzed using GraphPad Prism® software (GraphPad, San Diego, CA, USA). […]
Recombinant SmTGR was expressed and purified as previously described. An earlier assay of the coupled activities of SmTGR and peroxiredoxin-2 [13] was adapted to study the activity of SmTGR alone, using the following principle: SmTGR converts NADPH and GSSG to NADP^+ and reduced glutathione (GSH), and GSH production can be detected with ThioGlo®, a maleimide derivative of the naphthopyranone fluorophore which fluoresces upon reacting with free thiol groups such as those present in GSH. […] After ten additional minutes, samples were excited at […] and read for fluorescence at 515 nM.

[3] = tested on: SmTGR; design: method as in PMID 17579510; details: read-out: IC50 documented in the literature; cited from earlier work

O=C(C1CCCCC1)N1CC(=O)N2CCc3ccccc3C2C1 (stereo not shown) [PZQ, praziquantel]
Worm-killing activity concentration [1]: 0.3 to 1 µM

O=C1C=CC(=O)c2c(O)ccc(O)c21 [naphthazarin, Naphthazarin]
IC50 [2]: 1.42 ± 0.08 µM
inhibition at 30 µM ([2]; read-out: Inhibition of SmTGR): 100%
IC50 [3]: 10 µM

Reference: paper PMC4560900, “High-throughput screening against thioredoxin glutathione reductase identifies novel inhibitors with potential therapeutic value for schistosomiasis” (Infectious Diseases of Poverty, 2015)
